Results reported in patent publication US9422240B2, “Partially saturated nitrogen-containing heterocyclic compound” (TAISHO PHARMACEUTICAL CO., LTD, priority 2012, dated 2016).

Key:
human PHD2 [1] = biological target: T1, human PHD2 (Homo sapiens (Human), UniProt Q9GZT9); assay: Test 1: human PHD2 inhibitory activity, [14C]-2-oxoglutarate to [14C]-succinic acid radiometric assay with HIF-1α peptide; assay type: biochemical; conditions: test compound's concentration 1 μM; Test 1, [14C]-2-oxoglutarate radiometric assay; read-out: Percent inhibition (% at 1 μM)
Outline: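 Lysate from HighFive insect cells expressing human PHD2 (4 μg/well) was incubated for 15 min at 37° C with a 19-residue HIF-1α peptide and [14C]-2-oxoglutarate. Unreacted 2-oxoglutarate was precipitated with DNPH and filtered off, and [14C]-succinic acid was counted. Inhibition was calculated relative to substrate-free and compound-free controls.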

human PHD2 [2] = biological target: T1, human PHD2; assay: Test 2: human PHD2 inhibitory activity, fluorescence polarization assay of HIF-1α peptide proline hydroxylation; assay type: biochemical; conditions: for inhibition at 1 µM: test compound's concentration 1 μM, Test 2, fluorescence polarization assay, read-out: Percent inhibition (% at 1 μM); for IC50: human PHD2, fluorescence polarization assay, 20-min incubation at 30° C.
Outline: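 Enzyme from lysate of cells expressing human PHD2 (NM_022051), 40 ng/well, added to compound and 19-residue HIF-1α peptide substrate; 20 min at 30° C., EDTA quench. Prolyl hydroxylation detected by HIF-OH antibody binding via fluorescence polarization; inhibition relative to compound-free wells.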

T1 sequence (Q9GZT9 whole entry): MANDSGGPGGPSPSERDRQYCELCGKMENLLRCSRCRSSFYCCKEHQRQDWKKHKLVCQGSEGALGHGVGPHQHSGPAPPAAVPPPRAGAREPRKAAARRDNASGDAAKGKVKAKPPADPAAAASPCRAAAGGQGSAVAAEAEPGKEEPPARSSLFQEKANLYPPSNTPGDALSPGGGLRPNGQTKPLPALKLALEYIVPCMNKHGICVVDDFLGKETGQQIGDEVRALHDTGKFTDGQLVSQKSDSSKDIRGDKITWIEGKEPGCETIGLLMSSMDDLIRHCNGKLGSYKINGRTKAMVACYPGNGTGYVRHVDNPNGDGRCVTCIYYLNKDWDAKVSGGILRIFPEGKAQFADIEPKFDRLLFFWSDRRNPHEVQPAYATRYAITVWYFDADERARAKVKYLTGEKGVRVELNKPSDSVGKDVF

Row | Structure (SMILES) | inhibition at 1 µM (human PHD2 [1]) [%] | inhibition at 1 µM (human PHD2 [2]) [%] | IC50 (human PHD2 [2]) [nM]
1 | O=C(O)CNC(=O)C1=C(O)CCN(Cc2ccc(OCC(F)(F)F)c(Cl)c2)C1=O [Ex. 1-222] | 90 | 89 | 
2 | CC1(C)CC(O)=C(C(=O)NCC(=O)O)C(=O)N1Cc1ccc(-c2ccc(C(F)(F)F)cc2)cc1 [Ex. 1-118] | 77 | 87 | 
3 | Cc1ccc(CN2CC3(CCOCC3)C(O)=C(C(=O)NCC(=O)O)C2=O)cc1 [Ex. 1-89] | 69 | 72 | 
4 | O=C(O)CNC(=O)C1=C(O)CCN(Cc2ccc(OCC(F)(F)F)cc2)C1=O [Ex. 1-291] | 75 | 86 | 
5 | O=C(O)CNC(=O)C1=C(O)CCN(Cc2ccc(CCC3CC3)cc2)C1=O [Ex. 1-249] | 103 | 94 | 
6 | COc1ccc(CN2CCC(O)=C(C(=O)NCC(=O)O)C2=O)c(OC)c1 [Ex. 4-1, N-{[1-(2,4-Dimethoxybenzyl)-4-hydroxy-2-oxo-1,2,5,6-tetrahydropyridin-3-yl]carbonyl}glycine] | 58 | 67 | 
7 | O=C(O)CNC(=O)C1=C(O)CC2(CCC2)N(Cc2ccc(OC(F)(F)F)cc2)C1=O [Ex. 1-154] | 77 | 81 | 
8 | O=C(O)CNC(=O)C1=C(O)CC2(CCC2)N(Cc2ccc(OCC3CC3)cc2)C1=O [Ex. 1-267] | 81 | 86 | 
9 | O=C(O)CNC(=O)C1=C(O)C2(CCC2)CN(Cc2ccc(OCC3CC3)cc2)C1=O [Ex. 1-250] | 80 | 81 | 
10 | Cc1cc(CN2C(=O)C(C(=O)NCC(=O)O)=C(O)CC2(C)C)ccc1Cl [Ex. 1-180] | 54 | 65 | 
11 | CC(C)Oc1ccc(CN2C(=O)C(C(=O)NCC(=O)O)=C(O)CC2(C)C)cc1 [Ex. 1-228] | 71 | 64 | 
12 | O=C(O)CNC(=O)C1=C(O)CCN(Cc2ccc(C(F)(F)F)c(C(F)(F)F)c2)C1=O [Ex. 1-120] | 69 | 82 | 
13 | O=C(O)CNC(=O)C1=C(O)CC2(CCOCC2)N(Cc2ccc(-c3ccc(C(F)(F)F)cc3)cc2)C1=O [Ex. 1-1, N-[(4-Hydroxy-2-oxo-1-{[4′-(trifluoromethyl)biphenyl-4-yl]methyl}-9-oxa-1-azaspiro[5.5]undec-3-en-3-yl)carbonyl]glycine] | 78 | 94 | 
14 | O=C(O)CNC(=O)C1=C(O)CC2(CCCCC2)N(Cc2ccc(-c3ccccn3)cc2)C1=O [Ex. 1-111] | 68 | 80 | 
15 | Cc1ccc(Oc2ccc(CN3C(=O)C(C(=O)NCC(=O)O)=C(O)CC3(C)C)cn2)cc1 [Ex. 1-206] | 95 | 93 | 
16 | CC(C)(C)COCc1ccc(CN2CCC(O)=C(C(=O)NCC(=O)O)C2=O)cc1 [Ex. 1-232] | 89 | 91 | 

Row | Structure (SMILES) | inhibition at 1 µM (human PHD2 [1]) [%] | inhibition at 1 µM (human PHD2 [2]) [%] | IC50 (human PHD2 [2]) [nM]
17 | O=C(O)CNC(=O)C1=C(O)CCN(Cc2ccc(OC3CCC3)cc2)C1=O [Ex. 1-262] | 88 | 87 | 
18 | O=C(O)CNC(=O)C1=C(O)C2(CCOCC2)CN(Cc2cnc(-c3ccccc3)s2)C1=O [Ex. 1-97] | 89 | 91 | 
19 | O=C(O)CNC(=O)C1=C(O)CCN(Cc2ccc(C(F)(F)F)c(F)c2F)C1=O [Ex. 1-134] | 86 | 85 | 
20 | O=C(O)CNC(=O)C1=C(O)CCN(Cc2ccc(Oc3cccc(F)c3)nc2)C1=O [Ex. 1-256] | 101 | 91 | 66
21 | O=C(O)CNC(=O)C1=C(O)CCN(Cc2ccc(-c3ccc(C(F)(F)F)cc3)cc2)C1=O [Ex. 2-24] | 91 | 93 | 
22 | CC1(C)CC(O)=C(C(=O)NCC(=O)O)C(=O)N1Cc1cc(-c2ccc(Cl)cc2)on1 [Ex. 1-216] | 75 | 73 | 
23 | CC1(C)CC(O)=C(C(=O)NCC(=O)O)C(=O)N1Cc1cc(-c2ccc(Cl)cc2)no1 [Ex. 1-213] | 88 | 88 | 
24 | CC1CN(Cc2ccc(-c3ccc(C(F)(F)F)cc3)cc2)C(=O)C(C(=O)NCC(=O)O)=C1O (stereo not drawn) [Ex. 1-108] | 60 | 87 | 
25 | O=C(O)CNC(=O)C1=C(O)CCN(Cc2ccc(Cl)c(C(F)(F)F)c2)C1=O [Ex. 1-74] | 80 | 86 | 
26 | Cc1ccc(CN2CC3(CCCCC3)C(O)=C(C(=O)NCC(=O)O)C2=O)cc1 [Ex. 1-86] | 48 | 71 | 
27 | Cc1nc(-c2ccccc2)oc1CN1C(=O)C(C(=O)NCC(=O)O)=C(O)CC1(C)C [Ex. 1-301] | 56 | 75 | 
28 | O=C(O)CNC(=O)C1=C(O)CC2(CCCCC2)N(Cc2ccc(C(F)(F)F)cn2)C1=O [Ex. 1-142] | 54 | 52 | 
29 | COc1ccc(CN2C(=O)C(C(=O)NCC(=O)O)=C(O)CC2(C)C)cc1C [Ex. 1-196] | 41 | 48 | 
30 | O=C(O)CNC(=O)C1=C(O)CCN(Cc2ccc(C(F)(F)C(F)(F)F)cc2)C1=O [Ex. 1-140] | 79 | 85 | 
31 | CC1CC(O)=C(C(=O)NCC(=O)O)C(=O)N1C1(c2ccc(C(F)(F)F)cc2)CC1 (stereo not drawn) [Ex. 1-210] | 59 | 42 | 

More lines, now with the values ahead:

Row | inhibition at 1 µM (human PHD2 [1]) [%] | inhibition at 1 µM (human PHD2 [2]) [%] | IC50 (human PHD2 [2]) [nM] | Structure (SMILES)
32 | 98 | 93 |  | N#Cc1ccc(-c2ccc(CN3CCC(O)=C(C(=O)NCC(=O)O)C3=O)cc2)cc1 [Ex. 2-14]
33 | 92 | 95 |  | O=C(O)CNC(=O)C1=C(O)CCN(Cc2ccc(-c3ccccc3)cc2F)C1=O [Ex. 1-127]
34 | 69 | 81 |  | O=C(O)CNC(=O)C1=C(O)CC(CCc2ccccc2)N(Cc2ccc(C(F)(F)F)cc2)C1=O (stereo not drawn) [Ex. 1-185]
35 | 93 | 92 |  | O=C(O)CNC(=O)C1=C(O)CC2(CCOCC2)N(Cc2ccc(-c3ccccc3)cc2)C1=O [Ex. 1-10]
36 | 98 | 99 |  | O=C(O)CNC(=O)C1=C(O)C2(CC2)CN(Cc2ccc(-c3ccccc3)cc2)C1=O [Ex. 1-200]
37 | 89 | 89 |  | O=C(O)CNC(=O)C1=C(O)CCN(CCc2ccc(-c3ccccc3)cc2)C1=O [Ex. 1-31]
38 | 94 | 99 |  | O=C(O)CNC(=O)C1=C(O)CCN(Cc2ccc(OCc3cccc(Cl)c3)cc2)C1=O [Ex. 1-306]
39 | 103 | 99 |  | O=C(O)CNC(=O)C1=C(O)CCN(Cc2ccc(-c3ccc(O)cc3)cc2)C1=O [Ex. 2-30]
40 | 93 | 91 |  | O=C(O)CNC(=O)C1=C(O)CCN(Cc2ccc(-c3ccc(Cl)cc3)cc2)C1=O [Ex. 2-11]
41 | 84 | 82 |  | O=C(O)CNC(=O)C1=C(O)CCN(Cc2ccc(Br)cc2)C1=O [Ex. 1-23]
42 | 55 | 55 |  | O=C(O)CNC(=O)C1=C(O)CC(c2ccccc2)N(Cc2ccccc2)C1=O (stereo not drawn) [Ex. 1-49]
43 | 78 | 85 |  | Cc1c(CN2CCC(O)=C(C(=O)NCC(=O)O)C2=O)cnn1-c1ccccc1 [Ex. 1-268]
44 | 76 | 85 |  | CC1CN(Cc2ccc(Br)cc2)C(=O)C(C(=O)NCC(=O)O)=C1O (stereo not drawn) [Ex. 1-144]
45 | 72 | 64 |  | O=C(O)CNC(=O)C1=C(O)CC(C(F)(F)F)N(Cc2ccc(-c3ccccc3)cc2)C1=O (stereo not drawn) [Ex. 1-81]
46 | 84 | 85 |  | CC1(C)CC(O)=C(C(=O)NCC(=O)O)C(=O)N1Cc1ccc(-c2ccccc2)cc1 [Ex. 1-17]
47 | 101 | 99 | 77 | O=C(O)CNC(=O)C1=C(O)CCN(Cc2ccc(Oc3ccccc3F)cc2)C1=O [Ex. 1-282]
48 | 78 | 82 |  | CC1CC(O)=C(C(=O)NCC(=O)O)C(=O)N1Cc1ccc(Br)cc1 (stereo not drawn) [Ex. 1-148]
49 | 94 | 92 |  | O=C(O)CNC(=O)C1=C(O)CC2(COC2)N(Cc2ccc(-c3ccccc3)cc2)C1=O [Ex. 1-2, N-{[5-(Biphenyl-4-ylmethyl)-8-hydroxy-6-oxo-2-oxa-5-azaspiro[3.5]non-7-en-7-yl]carbonyl}glycine]
50 | 94 | 90 | 63 | O=C(O)CNC(=O)C1=C(O)CCN(Cc2ccc(Oc3cccc(F)c3)cc2)C1=O [Ex. 1-258]
51 | 99 | 90 |  | O=C(O)CNC(=O)C1=C(O)CCN(Cc2ccc(-c3ccccc3)nc2)C1=O [Ex. 1-73]
52 | 50 | 57 |  | O=C(O)CNC(=O)C1=C(O)C2(CCCCC2)CN(Cc2ccccc2)C1=O [Ex. 1-6]
53 | 81 | 86 |  | O=C(O)CNC(=O)C1=C(O)CCN(Cc2ccc3ccccc3c2)C1=O [Ex. 1-29]
54 | 89 | 90 |  | O=C(O)CNC(=O)C1=C(O)CCN(Cc2cnc(-c3ccccc3)nc2)C1=O [Ex. 1-41]
55 | 90 | 96 |  | O=C(O)CNC(=O)C1=C(O)CC2(CC2)N(Cc2ccc(-c3ccccc3)cc2)C1=O [Ex. 1-223]
56 | 80 | 77 |  | O=C(O)CNC(=O)C1=C(O)CCN(Cc2cccc(Cl)c2)C1=O [Ex. 1-66]
57 | 75 | 89 |  | CC1(C)CN(Cc2ccc(-c3ccccc3)cc2)C(=O)C(C(=O)NCC(=O)O)=C1O [Ex. 1-27]
